As a reminder, the viability is a read-out of living cells in per cent, often relative to untreated cells.

The values below come from patent US20240374616A1, “USE OF TERPENOIDS IN THE TREATMENT OF MASTOCYTOMA” (ARJIL BIOTECH HOLDING COMPANY LIMITED, priority 2021, published 2024).

The nature of series [1]: Cell Counting Kit-8 assay of cell viability on P815 cells. It counts as cell-based. The following applies: mouse, P815 mastocytoma cells, read-out: Cell viability (%) Mean ± SD. As to the method: Mouse mastocytoma cells purchased from the Bioresource Collection and Research Center (Hsinchu City, Taiwan) and were cultured with Dulbecco's modified Eagle's (DMEM) medium (Gibco, Carlsbad, California, USA) that was supplemented with 10% fetal bovine serum (Gibco, Carlsbad, California, USA), 100 U/ml penicillin, and 100 μg/ml streptomycin.
(§1) 1×10^5 cells per well of P815 cells were pretreated with terpenoids for 18 h. 5 μL Cell Counting Kit-8 reagent was added to each well, incubating for 4 h followed by optical density determination at 450 nm by a microplate reader (Tecan Sunrise). The mean optical density (OD, absorbance) from four wells of the indicated group was used to calculate the percentage of cell viability as the formula as follows: [(ODexperiment-ODblank)/(ODcontrol-ODblank)]×100%, where ODexperiment is the absorbance of cells treated with […] terpenoid-treated cells, and ODblank is the absorbance of a well with medium only. ODcontrol is the absorbance of cells treated with 0.1% DMSO only.
as §1, with “Mouse mastocytoma cells purchased from the Bioresource Collection and Research Center (Hsinchu City, Taiwan) and were cultured with Dulbecco's modified Eagle's (DMEM) medium (Gibco, Carlsbad, California, USA) that was supplemented with 10% fetal bovine serum (Gibco, Carlsbad, California, USA), 100 U/ml penicillin, and 100 μg/ml streptomycin. 1×10^5” for “1×10^5”, “terpenoids-treated” for “terpenoid-treated”

Series [2] relates to RBL-2H3 cells. The series is described as follows: β-hexosaminidase release assay in RBL-2H3 cells. It counts as cell-based. The following applies: under the safety dose, compared with DMSO, FIG. 1. As to the method: β-hexosaminidase Release Assay
RBL-2H3 cells were seeded into 24 well plate (0.5×10^5 cells/0.5 mL/well), and drug treatment was added every other day for 24 hours. On the third day, 500 μL of Anti-DNP-IgE (0.1 μg/mL) was added overnight. On the fourth day, add 160 μL DNP-BSA (0.1 μg/mL in Tyrode's buffer) to each well and react at 37° C. for 1 hour. For each well in 24 wells, 50 μL of cell supernatant was mixed with 50 μL of P-NAG (triplicates), and 96 well plates were reacted at 37° C. for 1 hour. Add 100 μL of stop buffer and measure the absorbance at 405 nm, which is the β-hexosaminidase data. For 24 well plates, add 300 μL of MTT reagent (0.5 mg/mL) to each well, react at 37° C. for 2 hours, remove the supernatant, add 300 μL of DMSO to each well, and measure the absorbance at 570 nm. The data were calculated by one-way ANOVA with Dunnett's test (* […], ** p<0.01, *** p<0.001, **** p<0.0001), and plotted with Graph pad.
The results from triplicate determinations are presented as the percentage of viable cells. Statistical analysis was performed using one-way ANOVA (Dunnett's multiple comparisons test). Results are presented as the mean ±SD from at least three independent experiments. Statistical significance is indicated (ns: no significance, ** p<0.01, *** p<0.001, **** p<0.0001, compared with DMSO).

The test system of series [3] is P815 mast cell tumor. Put plainly: H&E histopathological analysis of P815 tumor tissues. It counts as in vivo, mice. As to conditions: FIG. 11; 0.06 mg. As to the method: Mice were sacrificed on day 30, and tumors were removed, fixed with 10% formalin, 5% formic acid, and embedded in paraffin. Briefly, tumor sections were stained with hematoxylin and eosin (H&E) and analyzed by microscopy. Tissue sections were dewaxed with Xylene, and then treated with ethanol (100%, 95%, 75%, 50%). Tissues were stained with Hematoxylin for 1 minute and Eosin for 5 minutes.
The mice were administrated 100 μL samples intravenously every 2 days and sacrificed on the 30th day for histopathological examinations.

`C=C1C(=O)O[C@H]2/C=C(\C)CC3C=C(CC/C=C(\C)CC[C@H]12)C(=O)O3` (stereo partly drawn) [AR100-DS1, Ovatodiolide]: the viability at 18 h, 1 mg/mL in series [1] (1 mg/mL) is 42.4 ± 1.84%. In addition, the viability at 18 h, 2 mg/mL in series [1] (2 mg/mL) turned out to be 39.5 ± 3.09%. The viability at 18 h, 3 mg/mL in series [1] (3 mg/mL) turned out to be 40.8 ± 1.25%. Besides, the viability at 18 h, 4 mg/mL in series [1] (4 mg/mL) was 43.3 ± 0.65%. The viability at 18 h, 5 mg/mL in series [1] (5 mg/mL) came out at 41.4 ± 1.81%. Moreover, in series [2], the β-hexosaminidase release result is “significantly lower”.

Regarding `C=C(CC[C@@H](C(=O)O)[C@H]1CC[C@@]2(C)C3=CC[C@H]4C(C)(C)[C@@H](O)CC[C@]4(C)C3=CC[C@]12C)C(C)C` [AR101-DS4, Dehydroeburicoic Acid], the “H&E histological stain of tumor tissues” value in series [3] was “arrest the tumor cell proliferation and cause the tumor cell nucleus aggregation”. In series [1] (0.02 mg/mL), the viability at 18 h, 0.02 mg/mL stood at 181 ± 30.4%. Further, in series [1] (0.04 mg/mL), the viability at 18 h, 0.04 mg/mL was determined as 69.3 ± 4.58%. Also, the viability at 18 h, 0.06 mg/mL in series [1] (0.06 mg/mL) came to 49.7 ± 2.62%. Besides, in series [1] (0.08 mg/mL), the viability at 18 h, 0.08 mg/mL amounted to 54.3 ± 1.85%. Moreover, in series [1] (0.1 mg/mL), the viability at 18 h, 0.1 mg/mL stood at 49.1 ± 2.52%.
